Measured values: patent US20220228126A1, “USE OF PCBP1 TO GENERATE INDUCED PLURIPOTENT STEM CELLS WHILE INHIBITING ONCOGENESIS” (priority 2019, published 2022)

Tests used:
[1] = test system: BCL-2; experiment: qRT-PCR quantification of BCL-2 expression in cancer stem cells; assay type: cell-based, human; conditions: 10 μM niclosamide, DMSO base-line; U87-MG (CSC), DU-145 (CSC), MCF-7 (CSC)
Method: (§1) FIG. 28A-B: qRT-PCR quantification of c-Myc and BCL-2 expression in U87-MG(CSC) cells treated with DMSA or 10 μM niclosamide. For calculations: DMSO served as base-line in FIG. 28A. Mock-transfection served as base-line in FIG. 28B. Dotted line marks 1.5 fold change in y-axis, considered the benchmark for statistical significance.
as §1, with “29A-B:” for “28A-B:”, “DU-145 (CSC)” for “U87-MG(CSC)”, “29A.” for “28A.”, “29B.” for “28B.”
as §1, with “30A-B.” for “28A-B:”, “DU-145 (CSC)” for “U87-MG(CSC)”, “30A.” for “28A.”, “30B.” for “28B.”
(§2) U87-MG (CSC) were used to validate the NF-kB pathway. Cells were lysed using RIPA lysis buffer and 35 mcg cell lysate protein (determined by BCA assay) was loaded per well. […] The expression of c-Myc in the cells as measured by Western Blot was normalized. […] RNA levels were measured by qPRC using gene-specific Taqman probes for c-Myc and BCL-2. […]

[2] = test system: reactive oxygen species (ROS); conditions: mechanism shown in FIG. 25; cited from earlier work
[3] = test system: c-Myc; experiment: qRT-PCR quantification of c-Myc expression in cancer stem cells; assay type: cell-based, human; conditions: 10 μM niclosamide, DMSO base-line; U87-MG (CSC), DU-145 (CSC), MCF-7 (CSC)
Method: as §1
as §1, with “29A-B:” for “28A-B:”, “DU-145 (CSC)” for “U87-MG(CSC)”, “29A.” for “28A.”, “29B.” for “28B.”
as §1, with “30A-B.” for “28A-B:”, “DU-145 (CSC)” for “U87-MG(CSC)”, “30A.” for “28A.”, “30B.” for “28B.”
as §2

In the case of `O=C(Nc1ccc([N+](=O)[O-])cc1Cl)c1cc(Cl)ccc1O` [niclosamide], the BCL-2 expression [1] is given as “significantly down-regulated”, the “intracellular ROS content” value [2] is given as “elevates” and the c-Myc expression [3] is given as “significantly down-regulated”.
